Test results as given in PubChem BioAssay AID270 (DTP/NCI, 2004).
Several values for one entry are separate records, joined by “and”; a condition that tells them apart may be missing. Equal entries are not always repeated. Results filed as inconclusive are left out.

System: BDF1 mice, s.c. Lewis lung carcinoma, T/C %
Assay: NCI In Vivo Anticancer Drug Screen. Data for tumor model Lewis Lung Carcinoma (subcutaneous) in B6D2F1 (BDF1) mice
Summary of the method: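 Readout: survival or tumor size, expressed as treated (T) over vehicle control (C). Transplantable tumor implanted in mice; compound given to the treated group.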

[1] = endpoint: mean tumor weight, dose: 50.0 mg/kg/injection, schedule: Q01DX011 (ip), vehicle: saline, higher = larger tumour
[2] = endpoint: mean tumor weight, dose: 100.0 mg/kg/injection, schedule: Q01DX011 (ip), vehicle: saline, higher = larger tumour
[3] = endpoint: mean tumor weight, dose: 200.0 mg/kg/injection, schedule: Q01DX011 (ip), vehicle: saline, higher = larger tumour
[4] = endpoint: mean tumor weight, dose: 400.0 mg/kg/injection, schedule: Q01DX011 (ip), vehicle: saline, higher = larger tumour

## CC1=C(/C=C/C(C)=C/C=C/C(C)=C/C=O)C(C)(C)CCC1
endpoint: median survival time, dose: 16.0 mg/kg/injection, schedule: Q01DX005 (ip), vehicle: DMSO, higher = longer survival
  T/C: 153 % of control
endpoint: median survival time, dose: 32.0 mg/kg/injection, schedule: Q01DX005 (ip), vehicle: DMSO, higher = longer survival
  T/C: 151 % of control

## COc1cc(OC)c(-c2cc(=O)c3c(OC)c(OC)c(OC)c(OC)c3o2)cc1OC
[1]
  T/C: 73 % of control
[2]
  T/C: 70 % of control
[3]
  T/C: 97 % of control
[4]
  T/C: 51 % of control

## COc1cc(OC)c(OC)cc1/C=C/c1cc[n+](C)c2ccccc12
endpoint: median survival time, dose: 6.25 mg/kg/injection, schedule: Q01DX009 (ip), vehicle: saline, higher = longer survival
  T/C: 97 % of control
endpoint: median survival time, dose: 12.5 mg/kg/injection, schedule: Q01DX009 (ip), vehicle: saline, higher = longer survival
  T/C: 97 % of control
endpoint: median survival time, dose: 25.0 mg/kg/injection, schedule: Q01DX009 (ip), vehicle: saline, higher = longer survival
  T/C: 111 % of control

## CC(=O)C(C)=O
[1]
  T/C: 116 % of control
[2]
  T/C: 76 % of control
[3]
  T/C: 71 % of control
[4]
  T/C: 87 % of control

## CN1CC(=O)NC1=O
endpoint: mean tumor weight, dose: 2000.0 mg/kg/injection, schedule: Q01DX011 (ip), vehicle: saline, higher = larger tumour
  T/C: 99 % of control and 124 % of control

## CC1CN1P(=S)(N1CC1C)N1CC1C (stereo not drawn)
endpoint: mean tumor weight, dose: 9.0 mg/kg/injection, schedule: Q01DX011 (ip), vehicle: carboxymethylcellulose (CMC), higher = larger tumour
  T/C: 87 % of control
endpoint: mean tumor weight, dose: 17.5 mg/kg/injection, schedule: Q01DX011 (ip), vehicle: carboxymethylcellulose (CMC), higher = larger tumour
  T/C: 72 % of control
endpoint: mean tumor weight, dose: 53.0 mg/kg/injection, schedule: Q01DX011 (ip), vehicle: carboxymethylcellulose (CMC), higher = larger tumour
  T/C: 23 % of control

## NC(=O)c1csc(C2OC(CO)C(O)C2O)n1 (stereo not drawn)
endpoint: median survival time, dose: 18.75 mg/kg/injection, schedule: Q01DX009 (ip), vehicle: water, higher = longer survival
  T/C: 190 % of control and 235 % of control
endpoint: median survival time, dose: 37.5 mg/kg/injection, schedule: Q01DX009 (ip), vehicle: water, higher = longer survival
  T/C: 190 % of control and 235 % of control
endpoint: median survival time, dose: 75.0 mg/kg/injection, schedule: Q01DX009 (ip), vehicle: water, higher = longer survival
  T/C: 190 % of control and 235 % of control
endpoint: median survival time, dose: 150.0 mg/kg/injection, schedule: Q01DX009 (ip), vehicle: water, higher = longer survival
  T/C: 190 % of control and 235 % of control
endpoint: median survival time, dose: 300.0 mg/kg/injection, schedule: Q01DX009 (ip), vehicle: water, higher = longer survival
  T/C: 190 % of control and 235 % of control
endpoint: median survival time, dose: 600.0 mg/kg/injection, schedule: Q01DX009 (ip), vehicle: water, higher = longer survival
  T/C: 190 % of control and 235 % of control

## C=CC(=O)NCNC(=O)C=C
endpoint: mean tumor weight, dose: 44.0 mg/kg/injection, schedule: Q01DX011 (ip), vehicle: saline, higher = larger tumour
  T/C: 101 % of control
endpoint: mean tumor weight, dose: 66.0 mg/kg/injection, schedule: Q01DX011 (ip), vehicle: saline, higher = larger tumour
  T/C: 48 % of control
[2]
  T/C: 56 % of control

## COC1C(OC(=O)c2ccc(C)[nH]2)C(O)C(Oc2ccc3c(O)c(NC(=O)c4ccc(O)c(CC=C(C)C)c4)c(=O)oc3c2Cl)OC1(C)C (stereo not drawn)
endpoint: median survival time, dose: 0.38 mg/kg/injection, schedule: Q01DX009 (ip), vehicle: other, higher = longer survival
  T/C: 113 % of control
endpoint: median survival time, dose: 0.75 mg/kg/injection, schedule: Q01DX009 (ip), vehicle: other, higher = longer survival
  T/C: 91 % of control
endpoint: median survival time, dose: 3.0 mg/kg/injection, schedule: Q01DX007 (ip), vehicle: other, higher = longer survival
  T/C: 88 % of control
endpoint: median survival time, dose: 3.0 mg/kg/injection, schedule: Q01DX009 (ip), vehicle: other, higher = longer survival
  T/C: 117 % of control
endpoint: median survival time, dose: 6.0 mg/kg/injection, schedule: Q01DX007 (ip), vehicle: other, higher = longer survival
  T/C: 93 % of control
endpoint: median survival time, dose: 6.0 mg/kg/injection, schedule: Q01DX009 (ip), vehicle: other, higher = longer survival
  T/C: 98 % of control
endpoint: median survival time, dose: 12.0 mg/kg/injection, schedule: Q01DX007 (ip), vehicle: other, higher = longer survival
  T/C: 98 % of control
endpoint: median survival time, dose: 24.0 mg/kg/injection, schedule: Q01DX007 (ip), vehicle: other, higher = longer survival
  T/C: 91 % of control
endpoint: median survival time, dose: 24.0 mg/kg/injection, schedule: Q01DX009 (ip), vehicle: other, higher = longer survival
  T/C: 88 % of control
endpoint: median survival time, dose: 25.0 mg/kg/injection, schedule: Q01DX009 (ip), vehicle: other, higher = longer survival
  T/C: 90 % of control
endpoint: median survival time, dose: 48.0 mg/kg/injection, schedule: Q01DX007 (ip), vehicle: other, higher = longer survival
  T/C: 107 % of control
endpoint: median survival time, dose: 50.0 mg/kg/injection, schedule: Q01DX009 (ip), vehicle: other, higher = longer survival
  T/C: 105 % of control
